What was measured:
glioblastoma = details: rodent glioblastoma models; shifted from 20 days; cited from earlier work
[1] = tested on: K^+ influx in HEK293 cells; test: K+ influx in HEK293 cells (FIG. 1A); assay type: cell-based, human; details: ouabain 100 uM
U87 cell lines = test: cytotoxicity in GFP transfected U87 cells (cell number); assay type: cell-based, human; details: for reduction of number of cells: U87, 0.1 μm; for reduction of cell number / cytotoxic effect (in words): U87, 10 μm; for cytotoxic effect (in words): bumetanide at day 3 and day 5
Method: The HEK cell line is a specific immortalised cell line widely used in cell biology and biotechnology research and the U87 cell line is a human glioblastoma cell line that is commonly used in brain cancer research.
The effects of bumetanide alone or in combination with mebendazole were investigated in U87 cell lines at 0.1, 1, and 10 μm. Each experiment was performed in triplicate (n=3). Cells were GFP transfected (green). Cytotoxicity is manifested by loss of GFP and presence of small round flat cells loosing GFP expression indicative of cell death (apoptosis).

NKCC1 = molecular target: T1, NKCC1 (Homo sapiens, UniProt P55011); test: dose response on NKCC1-mediated K+ influx (FIG. 1B); assay type: cell-based; details: HEK293 cells, dose response curves
T1 construct: endogenous in cells; host or cells: HEK293
T1 sequence (P55011 1-1212): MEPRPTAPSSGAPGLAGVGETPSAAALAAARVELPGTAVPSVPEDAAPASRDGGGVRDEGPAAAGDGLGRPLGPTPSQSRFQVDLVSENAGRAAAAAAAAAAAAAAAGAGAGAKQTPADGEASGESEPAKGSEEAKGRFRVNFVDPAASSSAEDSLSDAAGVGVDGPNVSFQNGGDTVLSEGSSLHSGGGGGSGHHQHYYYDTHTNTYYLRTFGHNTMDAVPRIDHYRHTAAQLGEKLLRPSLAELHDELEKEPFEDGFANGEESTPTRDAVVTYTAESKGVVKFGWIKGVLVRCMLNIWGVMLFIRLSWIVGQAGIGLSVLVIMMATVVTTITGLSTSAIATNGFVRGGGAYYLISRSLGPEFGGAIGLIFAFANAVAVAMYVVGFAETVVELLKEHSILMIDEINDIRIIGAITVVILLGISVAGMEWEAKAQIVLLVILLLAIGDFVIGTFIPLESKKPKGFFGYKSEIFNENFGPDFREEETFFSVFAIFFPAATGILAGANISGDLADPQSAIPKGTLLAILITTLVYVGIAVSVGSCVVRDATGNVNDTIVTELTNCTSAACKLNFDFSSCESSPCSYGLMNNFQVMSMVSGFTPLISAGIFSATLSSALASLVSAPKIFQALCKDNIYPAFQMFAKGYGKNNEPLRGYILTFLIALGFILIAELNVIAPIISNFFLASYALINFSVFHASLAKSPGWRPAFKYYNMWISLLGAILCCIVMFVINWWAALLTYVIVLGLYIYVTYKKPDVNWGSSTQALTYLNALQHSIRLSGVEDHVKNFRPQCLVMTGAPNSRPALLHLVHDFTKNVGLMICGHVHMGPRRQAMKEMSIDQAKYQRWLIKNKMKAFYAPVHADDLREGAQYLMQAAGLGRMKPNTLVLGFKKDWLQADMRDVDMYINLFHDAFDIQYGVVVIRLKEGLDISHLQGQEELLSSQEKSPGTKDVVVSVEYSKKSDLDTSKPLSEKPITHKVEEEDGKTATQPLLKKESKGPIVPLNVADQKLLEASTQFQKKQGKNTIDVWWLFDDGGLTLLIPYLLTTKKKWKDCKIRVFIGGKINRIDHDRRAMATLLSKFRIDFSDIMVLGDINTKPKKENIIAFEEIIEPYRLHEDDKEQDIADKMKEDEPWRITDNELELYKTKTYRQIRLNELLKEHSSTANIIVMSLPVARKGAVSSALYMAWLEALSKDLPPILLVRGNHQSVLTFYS

U87 cells [2] = test: scratch test (invasion of tumour cells); assay type: cell-based, human; details: U87, 0.1 μm; for reduction of invasion: day 5, compared to controls not treated; for anti-invasive action (persistence of a trench): day 8
Excerpt: To further investigate invasion of tumour cells, we performed a scratch test. This test enables to visualize the propagation and metastasis of tumour cells determined by their capacity to cross the trench. Therefore, U87 cells are cultivated and a scratch is made with a blade in order to estimate the strength and rapidity of invasion.

U87 cells [3] = test: immunochemistry (Dapi, iodure propidium, Actin/GFP) viability of cells; assay type: cell-based, human; details: U87, 1 μm; control: 3%
Excerpt: The labels used are Dapi (blue) iodure propidium (red) and Actin immunocytochemistry with GFP (green) in order to visualize the viability and non-viability of cells.
To better illustrate the effects of bumetanide and mebendazole, we used Dapi (blue) iodure propidium (red) and Actin immunocytochemistry with GFP (green) in order to visualize the viability and non-viability of cells.

CCCSc1ccc2nc(NC(=O)OC)[nH]c2c1 [ABZ, albendazole]
mean survival (glioblastoma): 36 days

C[C@@H]1O[C@@H](O[C@H]2C[C@@H](O)[C@]3(CO)[C@H]4[C@H](O)C[C@]5(C)[C@@H](C6=CC(=O)OC6)CC[C@]5(O)[C@@H]4CC[C@]3(O)C2)[C@H](O)[C@H](O)[C@H]1O [ouabain]
inhibition at 100 µM ([1]; Homo sapiens): 44%

CCCCNc1cc(C(=O)O)cc(S(N)(=O)=O)c1Oc1ccccc1 [bumetanide]
reduction of number of cells (U87 cell lines; day 3): not
reduction of number of cells (U87 cell lines; day 5): not
reduction of cell number (U87 cell lines; day 8): 18%
cytotoxic effect (in words) (U87 cell lines): strong cytotoxic action
inhibition of K+ influx [1]: 49%
EC50 (NKCC1): 312 nM
reduction of invasion (U87 cells [2]): 40%
anti-invasive action (persistence of a trench) (U87 cells [2]): neither applications of mebendazole or bumetanide separately produced an anti-invasive action
dead cells / reduction of cell density (U87 cells [3]): 3,2%

COC(=O)Nc1nc2ccc(C(=O)c3ccccc3)cc2[nH]1 [mebendazole, methyl N-[6-(benzoyl)-1H-benzimidazol-2-yl] carbamate]
reduction of number of cells (U87 cell lines; day 3): 43%
reduction of number of cells (U87 cell lines; day 5): 90%
reduction of number of cells (U87 cell lines; day 8): 70%
reduction of cell number (U87 cell lines; day 1): 55%
reduction of cell number (U87 cell lines; day 5): 89%
reduction of cell number (U87 cell lines; day 8): 64%
cytotoxic effect (in words) (U87 cell lines): very strong cytotoxic effect
inhibition of K+ influx [1]: ineffective
mean survival (glioblastoma): 49 days
EC50 on NKCC1-mediated K+ influx (NKCC1): inefficacy
reduction of invasion (U87 cells [2]): 15%
anti-invasive action (persistence of a trench) (U87 cells [2]): neither applications of mebendazole or bumetanide separately produced an anti-invasive action
dead cells / reduction of cell density (U87 cells [3]): 50%

Source: US20240033238A1, “COMBINATION OF COMPOUNDS FOR USE IN THERAPY” (B&A ONCOMEDICAL, priority 2022, published 2024)
